Where a name gives a salt, the structure may show the parent alone.
Legend:
[1] = biological target: T1, human brain-derived dopamine D4 receptor (Homo sapiens, UniProt P21917); test: Agonistic activity in G protein dependent pathway of dopamine D4 receptor (aequorin intracellular calcium luminescence, FDSS); type: cell-based; conditions: for EC50: concentration required to achieve a 50% response of Emax, CHO-K1 or HEK293 cells transfected with D4 receptor; for Emax: read-out: Maximal activity on D4 receptor (%)
T1 construct: expressed in transfected cells; host or cells: CHO (CHO-K1) or HEK293 cells
T1 sequence (P21917 1-419): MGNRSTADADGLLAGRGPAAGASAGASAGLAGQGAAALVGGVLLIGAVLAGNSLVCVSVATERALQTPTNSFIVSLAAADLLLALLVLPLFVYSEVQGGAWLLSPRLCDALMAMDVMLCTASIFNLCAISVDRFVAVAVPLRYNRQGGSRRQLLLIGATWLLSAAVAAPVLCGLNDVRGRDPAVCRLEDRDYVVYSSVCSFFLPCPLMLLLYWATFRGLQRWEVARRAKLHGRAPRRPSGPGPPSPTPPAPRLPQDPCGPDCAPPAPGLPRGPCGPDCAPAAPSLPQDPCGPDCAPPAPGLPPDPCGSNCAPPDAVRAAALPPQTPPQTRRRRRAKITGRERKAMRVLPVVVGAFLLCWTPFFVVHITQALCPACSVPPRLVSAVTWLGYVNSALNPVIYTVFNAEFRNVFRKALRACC
Outline: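 CHO-K1 or HEK293 cells transfected with D4 receptor, cultured 24 h at 37 °C, preloaded with coelenterazine; aequorin luminescence recorded on FDSS after compound addition. Emax taken as maximal activity; EC50 as concentration giving 50% of Emax.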

[2] = Brain penetration study in rat (Kp,uu,brain); type: in vivo; conditions: brain and plasma (unbound); 7-week-old SD-type or WKY-type rat; subcutaneous or oral administration; plasma and brain collected 0.5, 1 or 2 hours after administration; LC-MS; read-out: Kp,uu,brain (Unbound brain-to-plasma drug concentration ratio)
Description: In this study, the brain penetration of the present compounds can be evaluated. Specifically, a 7-week-old SD-type or WKY-type rat received the subcutaneous administration of a solution of the present compound in saline or the oral administration of a suspension of the present compound in methylcellulose. Plasma and brain were collected from the treated rat 0.5 hour, 1 hour or 2 hours after the administration, and then the concentrations of the present compound in the plasma and the brain were measured by a LC-MS method.
The protein binding ratios of the present compound to the plasma and the brain were measured by an equilibrium dialysis method.
The concentrations of the present compound in the plasma and the brain as well as the plasma and brain protein binding ratios are applied to the following formula, and thus Kp,uu,brain (Unbound brain-to-plasma drug concentration ratio) can be calculated.
Kp,uu,brain=(the concentration of the present compound in the brain×(100−the brain protein binding ratio (%))/100)/(the concentration of the present compound in the plasma×(100−the plasma protein binding ratio (%))/100)

Row | Structure (SMILES) | EC50 [1] | Emax [1] | Kp uu [2]
1 | Cc1c(-c2ncccc2F)nn2c1CN(Cc1ccc(C(F)(F)F)cn1)CC2 [Example 128] | 36 nM | 86% | 0.6
2 | Fc1cccnc1-c1cc2n(n1)CCN(Cc1ccc3c(n1)CCC3)C2 [Example 129] | 14 nM | 91% | 0.58
3 | Cc1ncc(CN2CCn3nc(-c4ccccn4)cc3C2)c(N)n1 [Example 22, 2-Methyl-5-{[2-(pyridin-2-yl)-6,7-dihydropyrazolo[1,5-a]pyrazin-5(4H)-yl]methyl}pyrimidine-4-amine] | 109 nM | 62% | 0.2
4 | Cc1ncc(CN2CCn3nc(-c4ncccc4C)c(C)c3C2)cn1 [Example 116] | 131 nM | 67% | 1.42
5 | N#Cc1ccc(CN2CCn3nc(-c4ncccc4F)cc3C2)cc1 [Example 69] | 59 nM | 50% | –
6 | Fc1cccnc1-c1cc2n(n1)CCN(Cc1ccc(C(F)(F)F)nc1)C2 [Example 162] | 59 nM | 62% | –
7 | Cc1cccnc1-c1cc2n(n1)CCN(Cc1ccc3c(n1)CCC3)C2 [Example 113] | 13 nM | 104% | 0.77
8 | Fc1c(-c2ccccn2)nn2c1CN(Cc1ccccc1)CC2 [Example 78] | 11 nM | 51% | –
9 | c1ccc(CN2CCCn3nc(-c4ccccn4)cc3C2)cc1 [Example 8] | 105 nM | 37% | –
10 | Cc1cccnc1-c1cc2n(n1)CCN(Cc1ccc(C(F)(F)F)c(F)c1)C2 [Example 48] | 96 nM | 50% | –
11 | Fc1ccc(CN2CCn3nc(-c4ccccn4)cc3C2)cc1 [Example 2] | 28 nM | 83% | –
12 | Cc1c(-c2ccccn2)nn2c1CN(Cc1ccc(C(F)(F)F)nc1)CC2 [Example 95] | 51 nM | 56% | –
13 | Cc1cccnc1-c1cc2n(n1)CCN(Cc1ccc(OC(F)(F)F)c(F)c1)C2 [Example 177, 5-[3-Fluoro-4-(trifluoromethoxy)benzyl]-2-(3-methylpyridin-2-yl)-4,5,6,7-tetrahydropyrazolo[1,5-a]pyrazine monohydrochloride] | 141 nM | 39% | –
14 | c1ccc(-c2cc3n(n2)CCN(Cc2n[nH]c4ccccc24)C3)nc1 [Example 3] | 19 nM | 60% | –
15 | Cc1ccc(CN2CCn3nc(-c4ncccc4C)c(C)c3C2)nc1 [Example 114] | 64 nM | 93% | –
16 | Cc1nc(CN2CCn3nc(-c4ncccc4C)cc3C2)cs1 [Example 139] | 0.6 nM | 56% | –
17 | Cc1cccnc1-c1cc2n(n1)CCN(Cc1ccc(C(F)(F)F)c(C#N)c1)C2 [Example 86] | 52 nM | 85% | –
18 | COc1ccccc1-c1cc2n(n1)CCN(Cc1ccc(F)cc1F)C2 [Example 25, 5-(2,4-Difluorobenzyl)-2-(2-methoxyphenyl)-4,5,6,7-tetrahydropyrazolo[1,5-a]pyrazine] | 100 nM | 57% | –
19 | Fc1cccnc1-c1cc2n(n1)CCN(Cc1cnc(C(F)(F)F)nc1)C2 [Example 198] | 45 nM | 33% | –
20 | Cc1cnc(CN2CCn3nc(-c4ncccc4C)c(C)c3C2)cn1 [Example 119] | 145 nM | 71% | –
21 | COc1ccccc1-c1cc2n(n1)CCN(Cc1cn3ccccc3n1)C2 [Example 17] | 25 nM | 52% | –
22 | Cc1cccnc1-c1cc2n(n1)CCN(Cc1cc3c(cn1)COC3)C2 [Example 182] | 79 nM | 47% | –
23 | Fc1ccc(CN2CCCn3nc(-c4ccccn4)cc3C2)cc1 [Example 9] | 89 nM | 34% | –
24 | Cc1c(-c2ccccn2)nn2c1CN(Cc1ccccc1)CCC2 [Example 32, 5-Benzyl-3-methyl-2-(pyridin-2-yl)-5,6,7,8-tetrahydro-4H-pyrazolo[1,5-a][1,4]diazepine] | 19 nM | 52% | –
25 | Cc1c(-c2ncccc2F)nn2c1CN(Cc1ccc3c(n1)CCC3)CC2 [Example 125] | 13 nM | 98% | –
26 | Fc1cccnc1-c1cc2n(n1)CCN(Cc1ccc(C(F)(F)F)cn1)C2 [Example 163] | 55 nM | 57% | –
27 | Cc1c(-c2ccccn2)nn2c1CN(Cc1ccc(C(F)(F)F)cn1)CC2 [Example 108] | 1 nM | 66% | –

Other lines, results leading:

Row | EC50 [1] | Emax [1] | Kp uu [2] | Structure (SMILES)
28 | 41 nM | 49% | 0.79 | Cc1cccnc1-c1cc2n(n1)CCN(Cc1nc3ccccc3[nH]1)C2 [Example 144]
29 | 85 nM | 45% | – | Cc1cccnc1-c1cc2n(n1)CCN(Cc1ccc3c(c1)N(C)C(=O)CC3)C2 [Example 70]
30 | 101 nM | 57% | – | Cc1cnc(CN2CCn3nc(-c4ncccc4C)cc3C2)cn1 [Example 154]
31 | 50 nM | 49% | – | Cc1cccnc1-c1cc2n(n1)CCN(Cc1ccc(C(F)F)nc1)C2 [Example 138]
32 | 36 nM | 58% | – | Cc1cccnc1-c1cc2n(n1)CCN(Cc1cccc(Cl)c1)C2 [Example 59]
33 | 127 nM | 50% | – | Cc1cccnc1-c1cc2n(n1)CCN(Cc1ccc(CO)cn1)C2 [Example 157]
34 | 108 nM | 42% | – | Cc1cccnc1-c1cc2n(n1)CCN(Cc1cc(OC(F)(F)F)ccc1F)C2 [Example 64]
35 | 83 nM | 77% | – | Cc1cccnc1-c1cc2n(n1)CCN(Cc1ccc(C#N)cc1)C2 [Example 57]
36 | 32 nM | 65% | – | Cc1cccnc1-c1cc2n(n1)CCN(Cc1ccc(CF)cn1)C2 [Example 123]
37 | 44 nM | 85% | – | Cn1cc(CN2CCn3nc(-c4ncccc4F)cc3C2)c2ccccc21 [Example 166]
38 | 45 nM | 52% | – | Cc1cccnc1-c1cc2n(n1)CCN(Cc1cc3ccccc3[nH]1)C2 [Example 145]
39 | 11 nM | 70% | – | Cc1cccnc1-c1cc2n(n1)CCN(Cc1n[nH]c3c(F)cccc13)C2 [Example 40]
40 | 5 nM | 47% | – | Cc1cccnc1-c1cc2n(n1)CCN(Cc1ccc(C(F)F)cn1)C2 [Example 133]
41 | 18 nM | 70% | – | Cc1cccnc1-c1cc2n(n1)CCN(Cc1ccc(C(F)F)cc1)C2 [Example 80]
42 | 27 nM | 64% | – | Cc1ccc(CN2CCn3nc(-c4ncccc4C)cc3C2)cn1 [Example 67]
43 | 71 nM | 65% | – | Cc1cccnc1-c1cc2n(n1)CCN(Cc1ccc(C(F)(F)F)cc1F)C2 [Example 47]
44 | 19 nM | 84% | – | Cc1cccnc1-c1cc2n(n1)CCN(Cc1ccc(CF)cc1)C2 [Example 49]
45 | 34 nM | 57% | – | Cc1cccnc1-c1cc2n(n1)CCN(Cc1cccc(F)c1)C2 [Example 61]
46 | 47 nM | 71% | – | Cc1cccnc1-c1cc2n(n1)CCN(Cc1cn(C)c3ccccc13)C2 [Example 148]
47 | 3.4 nM | 83% | – | Fc1cccnc1-c1cc2n(n1)CCN(Cc1ccccc1)C2 [Example 79]

Reference: patent US20160318933A1, “FUSED PYRAZOLE DERIVATIVE” (SUMITOMO DAINIPPON PHARMA CO., LTD., priority 2013, published 2016)
